Assay results as given in article PMC6121902, “Conjugation with Dihydrolipoic Acid Imparts Caffeic Acid Ester Potent Inhibitory Effect on Dopa Oxidase Activity of Human Tyrosinase” (International Journal of Molecular Sciences, 2018).
Several values for one entry are separate records, joined by “and”; a condition that tells them apart may be missing. Equal entries are not always repeated. Entries after “also recorded” stand apart in the source; their conditions may differ. Where two headings read alike, the source gives them in different places.

Tests used:
[1] = molecular target: T1, tyrosinase from HBL human melanoma cells (Homo sapiens, UniProt P14679); experiment: DO activity of human tyrosinase in HBL cell extracts (MBTH assay, 490 nm); format: biochemical; details: for Km: read-out: Km (apparent)
T1 construct: endogenous in cells; host or cells: HBL human melanoma cells (detergent-solubilized cell extract)
T1 sequence (P14679 19-529): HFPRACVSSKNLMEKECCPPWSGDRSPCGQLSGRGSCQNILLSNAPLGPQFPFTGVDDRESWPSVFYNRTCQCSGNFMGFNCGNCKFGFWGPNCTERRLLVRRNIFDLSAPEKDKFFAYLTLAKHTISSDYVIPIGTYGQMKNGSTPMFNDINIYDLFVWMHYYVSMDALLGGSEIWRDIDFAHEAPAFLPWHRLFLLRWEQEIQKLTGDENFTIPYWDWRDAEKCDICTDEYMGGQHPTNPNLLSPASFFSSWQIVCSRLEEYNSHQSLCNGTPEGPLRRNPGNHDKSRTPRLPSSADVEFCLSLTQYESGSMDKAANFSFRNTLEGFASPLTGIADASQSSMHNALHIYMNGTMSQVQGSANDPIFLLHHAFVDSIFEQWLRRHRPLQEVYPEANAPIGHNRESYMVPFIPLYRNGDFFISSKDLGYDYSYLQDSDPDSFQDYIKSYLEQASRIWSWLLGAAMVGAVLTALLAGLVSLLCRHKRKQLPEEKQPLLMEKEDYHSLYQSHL
Description: In further experiments, the effect of LCAME and LCA was investigated on extracts from HBL human melanoma cells expressing tyrosinase, and the inhibition of DO activity was evaluated. DO activity was determined according to Winder and Harris with some minor modifications: cell extracts were incubated with 3-methyl-2-benzothiazolinone hydrazone (MBTH) and absorbance at 490 nm was measured every 10 min for 1 h.
Cells were solubilized in 1% Igepal, 1% phenylmethylsulfonyl fluoride, 50 mM phosphate buffer (pH 6.8) and centrifuged at 2000 rpm for 5 min.
DO activity determinations were performed according to Winder and Harris with minor modifications. Briefly, cell extracts (usually 50–100 µg protein/assay) were incubated with 5 mM MBTH and 2.5 mM L-DOPA in 50 mM phosphate buffer pH 6.8 in the presence of the indicated concentrations of the compound of choice in a 96-wells plate. DO activity was measured spectrophotometrically in a microplate reader every ten minutes for one hour and was expressed as the slopes calculated with the GraphPad Prism 7 software (Linear Regression, San Diego, CA, USA).
For the analysis of kinetic parameters, the assays were run as above, using different concentrations of L-DOPA (from 0.1 to 2.0 mM) and of the inhibitor (0, 10 and 25 μM) to build the Lineweaver–Burk plot.

[2] = tested on: tyrosinase; experiment: Tyrosinase expression by Western blot (αPEP7), with or without NDP-MSH; format: cell-based, human
Description: Control HBL cells or cells grown in the presence of CAME (25 µM) or LCAME (25 or 50 µM) were stimulated for 48 h with a potent analogue of αMSH ([Nle^4,D-Phe^7]-α-MSH (NDP-MSH), 10^−7 M). Use of the 50 μM concentration of CAME was avoided since this concentration was somewhat cytotoxic as shown above. Expression of tyrosinase was then evaluated by Western blot using a specific antibody directed against tyrosinase (αPEP7). […] However, other mechanisms such as interference with activation and/or functional coupling of the melanocortin 1 receptor responsible for αMSH actions cannot be ruled out and a complete study of these possibilities is beyond the scope of this work. Accordingly, interference of LCAME with MITF expression or activity remains speculative at this stage. In any case, this preliminary observation deserves confirmation using cultured normal human melanocytes and further mechanistic analysis, as it may further support the potential use of LCAME as a skin depigmenting agent. Indeed, LCAME may act at two different levels, on one hand by inhibiting preexisting tyrosinase by a competitive mechanism, and on the other hand by interfering with αMSH-dependent induction of tyrosinase expression.
Figure 5 Effect on tyrosinase expression of CAME (25 µM) and LCAME (25 and 50 µM). HBL melanoma cells were incubated with or without the indicated compounds and stimulated with NDP-MSH (10^−7 M). After 48 h of treatment, tyrosinase levels were compared by Western blotting, performed as described in Materials and Methods. […] For each experimental condition, the fold-increase of tyrosinase abundance upon NDP-MSH treatment relative to the corresponding control was determined by densitometric analysis (ImageJ software) and is shown below the figure.
After protein separation by SDS-PAGE, they were transferred from the gel to the membrane and immunochemical detection with anti-PEP7 was performed as previously described. Briefly, the filters were blocked for 1 h in 2% bovine serum albumin in 1% Tween 20 PBS and incubated overnight at 4 °C with primary antibodies (1:4000 dilution). The filters were washed and further incubated with peroxidase-labeled mouse anti-rabbit IgG (1:5000 dilution). Staining and detection were done with ECL Plus Western Blotting Detection System chemiluminescent substrate (Thermo Fisher Scientific, Waltham, MA, USA). Images were acquired in a Fusion Solo.6S system (Vilber-Lourmat, Marne La Vallée, France). Signal intensities were estimated with ImageJ (National Institutes of Health, Bethesda, […], USA) in independent blots, and normalized with the corresponding loading controls (obtained by staining the membranes with an anti-ERK2 antibody).

[3] = tested on: T2, human tyrosinase; experiment: TH activity of human tyrosinase; format: biochemical; details: compared with DO activity
T2 construct: endogenous in cells

IC50 ([1]; DO activity, HBL cell extracts, L-DOPA 2.5 mM, read-out: IC50 (Mean ± SEM)): 30 µM and 30.1 µM
Ki ([1]; DO activity, competitive model Km^app = Km (1 + [I]/Ki)): 34.7 ± 1.1 µM
type of inhibition (Lineweaver–Burk) ([1]; L-DOPA 0.1 to 2.0 mM, LCAME 10 or 25 μM): competitive inhibition
Vmax ([1]; [LCAME] 10 μM): 0.18 ± 0.02 ∆A490/min mg
Km ([1]; [LCAME] 10 μM): 1430 ± 300 µM
Vmax ([1]; [LCAME] 25 μM): 0.19 ± 0.03 ∆A490/min mg
Km ([1]; [LCAME] 25 μM): 1950 ± 500 µM
inhibitory effect on DO activity ([1]; fixed concentration of 25 μM, HBL cell extracts): significant inhibitory effect
effect on TH activity of human tyrosinase [3]: weaker; also recorded: much smaller
Compound: COC(=O)/C=C/c1ccc(O)c(O)c1SCCC(S)CCCCC(=O)O (centres unmarked) [LCAME, 2-S-lipoylcaffeic acid methyl ester]
NDP-MSH-mediated stimulation of tyrosinase expression ([2]; 25 or 50 µM, NDP-MSH 10^−7 M, 48 h): apparently blocked
basal tyrosinase expression ([2]; HBL cells, CAME 25 µM or LCAME 25 or 50 µM, Western blot): No alteration; also recorded: No significant changes
